# Assay results: ChEMBL document CHEMBL1221220, “Transport and signaling via the amino acid binding site of the yeast Gap1 amino acid transceptor” (Nat Chem Biol, 2009)
# Residue numbers refer to the chain shown, from its start. Calls of active or inactive are those of the source. The calls are words filed in the database; no cut-off is given here.
# Experiments:
# [1] = test system: Saccharomyces cerevisiae; assay: Induction of yeast Gap1 L404 mutant-mediated trehalose activation at 2 mM in presence of 10 mM MTSEA treated before compound addition
# [2] = test system: T1, General amino-acid permease GAP1 (Saccharomyces cerevisiae), P19145 [A405C]; assay: Activation of yeast Gap1 A405C mutant-mediated amino acid uptake at 10 mM
# T1 sequence (whole entry): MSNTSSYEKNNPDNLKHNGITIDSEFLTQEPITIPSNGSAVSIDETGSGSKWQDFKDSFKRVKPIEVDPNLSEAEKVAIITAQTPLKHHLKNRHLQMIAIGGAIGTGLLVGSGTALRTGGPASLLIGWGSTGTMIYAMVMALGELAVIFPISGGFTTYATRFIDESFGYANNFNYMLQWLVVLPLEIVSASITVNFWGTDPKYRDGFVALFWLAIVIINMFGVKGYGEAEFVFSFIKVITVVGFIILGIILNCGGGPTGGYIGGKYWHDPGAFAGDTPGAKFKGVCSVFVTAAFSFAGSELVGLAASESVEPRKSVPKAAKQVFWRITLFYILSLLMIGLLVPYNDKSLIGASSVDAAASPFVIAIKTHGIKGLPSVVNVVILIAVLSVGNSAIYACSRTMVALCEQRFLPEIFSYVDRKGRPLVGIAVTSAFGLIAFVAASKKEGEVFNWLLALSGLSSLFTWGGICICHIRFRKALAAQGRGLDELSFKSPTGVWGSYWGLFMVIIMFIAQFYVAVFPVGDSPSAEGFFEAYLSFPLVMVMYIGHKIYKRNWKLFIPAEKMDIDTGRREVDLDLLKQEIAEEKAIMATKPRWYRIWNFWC
# [3] = test system: T2, General amino-acid permease GAP1 (Saccharomyces cerevisiae), P19145 [S398C]; assay: Induction of yeast Gap1 S398C mutant-mediated trehalose activation at 10 mM
# T2 sequence (whole entry): T1 sequence (whole entry) with S398C, C405A
# [4] = test system: T3, General amino-acid permease GAP1 (Saccharomyces cerevisiae), P19145 [A385C]; assay: Induction of yeast Gap1 A385C mutant-mediated […] activation at 2 mM in presence of 10 mM MTSEA treated before compound addition
# T3 sequence (whole entry): T1 sequence (whole entry) with A385C, C405A
# [5] = test system: T4, General amino-acid permease GAP1 (Saccharomyces cerevisiae), P19145 [A396C]; assay: Induction of yeast Gap1 A396C mutant-mediated trehalose activation at 10 mM
# T4 sequence (whole entry): T1 sequence (whole entry) with A396C, C405A
compound,measurement,setting,value
NC(=O)NCCC[C@H](N)C(=O)O,inhibition,[1],Active
same,Activity,[2],inactive
same,Activity,[3],inactive
same,inhibition,[4],Active
same,Activity,[5],inactive
